Measured values as given in the NIST ThermoML archive (doi:10.1016/j.jct.2018.12.008).
± gives the expanded uncertainty stated by the source.

Tests used:
[1] = mn = molality of the nth substance listed, in mol/kg; settings: 100 kPa, Liquid; for viscosity: Falling or rolling sphere viscometry; for electrical conductivity: Frequency=0.003 MHz, Alternating current cell with electrodes; for mass density: Vibrating tube method
[2] = 100 kPa, Liquid, Falling or rolling sphere viscometry

CCCC[n+]1ccc(C)cc1.[Br-] [1-butyl-4-methylpyridinium bromide] + O
[1]
Settings	electrical conductivity, 288.15 K [S/m]	electrical conductivity, 298.15 K [S/m]	electrical conductivity, 308.15 K [S/m]	mass density, 288.15 K [kg/m3]	mass density, 298.15 K [kg/m3]	mass density, 308.15 K [kg/m3]	viscosity, 288.15 K [mPa·s]	viscosity, 298.15 K [mPa·s]	viscosity, 308.15 K [mPa·s]
m1 = 0.0011	–	–	–	999.126 ± 0.6	997.066 ± 0.6	994.057 ± 0.6	1.135 ± 0.022	0.8895 ± 0.021	0.7239 ± 0.021
m1 = 0.0018	–	–	–	999.138 ± 0.6	997.081 ± 0.6	994.066 ± 0.6	1.137 ± 0.022	0.8911 ± 0.021	0.7267 ± 0.021
m1 = 0.0021	0.0186 ± 0.0017	0.023 ± 0.0021	0.0278 ± 0.0025	999.139 ± 0.6	997.093 ± 0.64	994.069 ± 0.6	1.137 ± 0.022	0.891 ± 0.028	0.727 ± 0.021
m1 = 0.0036	–	–	–	999.163 ± 0.6	997.131 ± 0.6	994.087 ± 0.6	1.14 ± 0.022	0.894 ± 0.021	0.7317 ± 0.021
m1 = 0.0043	0.0358 ± 0.0016	0.0444 ± 0.0021	0.054 ± 0.0025	999.177 ± 0.6	997.148 ± 0.6	994.099 ± 0.6	1.141 ± 0.022	0.895 ± 0.021	0.734 ± 0.021
m1 = 0.0065	0.0536 ± 0.0017	0.0671 ± 0.0022	0.0809 ± 0.0026	999.217 ± 0.6	997.205 ± 0.6	994.13 ± 0.6	1.146 ± 0.022	0.9 ± 0.021	0.742 ± 0.021

CCCCCC[n+]1ccc(C)cc1.[Br-] [1-hexyl-4-methylpyridinium bromide] + O
[1]
Settings	electrical conductivity, 288.15 K [S/m]	electrical conductivity, 298.15 K [S/m]	electrical conductivity, 308.15 K [S/m]	mass density, 288.15 K [kg/m3]	mass density, 298.15 K [kg/m3]	mass density, 308.15 K [kg/m3]	viscosity, 288.15 K [mPa·s]	viscosity, 298.15 K [mPa·s]	viscosity, 308.15 K [mPa·s]
m1 = 0.0011	–	–	–	999.106 ± 0.6	997.049 ± 0.6	994.045 ± 0.6	1.134 ± 0.022	0.8886 ± 0.021	0.721 ± 0.021
m1 = 0.0018	–	–	–	999.113 ± 0.6	997.053 ± 0.6	994.051 ± 0.6	1.135 ± 0.022	0.8893 ± 0.021	0.7216 ± 0.021
m1 = 0.0021	0.0177 ± 0.0016	0.022 ± 0.002	0.0266 ± 0.0024	999.119 ± 0.6	997.057 ± 0.64	994.054 ± 0.6	1.135 ± 0.022	0.889 ± 0.027	0.722 ± 0.021
m1 = 0.0036	–	–	–	999.129 ± 0.6	997.069 ± 0.6	994.067 ± 0.6	1.136 ± 0.022	0.8907 ± 0.021	0.7231 ± 0.021
m1 = 0.0043	0.0345 ± 0.0016	0.0431 ± 0.0019	0.0522 ± 0.0024	999.138 ± 0.6	997.073 ± 0.6	994.072 ± 0.6	1.136 ± 0.022	0.891 ± 0.021	0.724 ± 0.021
m1 = 0.0065	0.0512 ± 0.0016	0.0635 ± 0.002	0.077 ± 0.0024	999.156 ± 0.6	997.088 ± 0.6	994.09 ± 0.6	1.138 ± 0.022	0.893 ± 0.021	0.725 ± 0.021

CCCCCCCC[n+]1ccc(C)cc1.[Br-] [1-octyl-4-methylpyridinium bromide] + O
[1]
Settings	electrical conductivity, 288.15 K [S/m]	electrical conductivity, 298.15 K [S/m]	electrical conductivity, 308.15 K [S/m]	mass density, 288.15 K [kg/m3]	mass density, 298.15 K [kg/m3]	mass density, 308.15 K [kg/m3]	viscosity, 288.15 K [mPa·s]	viscosity, 298.15 K [mPa·s]	viscosity, 308.15 K [mPa·s]
m1 = 0.0011	–	–	–	999.141 ± 0.6	997.088 ± 0.6	994.07 ± 0.6	1.134 ± 0.022	0.8878 ± 0.021	0.7215 ± 0.021
m1 = 0.0018	–	–	–	999.186 ± 0.6	997.125 ± 0.6	994.101 ± 0.6	1.135 ± 0.022	0.8882 ± 0.021	0.7225 ± 0.021
m1 = 0.0021	0.0176 ± 0.0016	0.0219 ± 0.002	0.0265 ± 0.0024	999.196 ± 0.6	997.135 ± 0.64	994.115 ± 0.6	1.136 ± 0.022	0.891 ± 0.029	0.727 ± 0.021
m1 = 0.0036	–	–	–	999.266 ± 0.6	997.199 ± 0.6	994.174 ± 0.6	1.136 ± 0.022	0.8892 ± 0.021	0.7255 ± 0.021
m1 = 0.0043	0.0344 ± 0.0015	0.042 ± 0.0019	0.0517 ± 0.0023	999.3 ± 0.6	997.233 ± 0.6	994.42 ± 0.6	1.138 ± 0.022	0.892 ± 0.021	0.731 ± 0.021
m1 = 0.0065	0.051 ± 0.0016	0.0634 ± 0.0021	0.076 ± 0.0023	999.402 ± 0.6	997.329 ± 0.6	994.283 ± 0.6	1.139 ± 0.022	0.893 ± 0.021	0.734 ± 0.021

O [water]
[2]
Settings	viscosity [mPa·s]
288.15 K	1.133 ± 0.022
298.15 K	0.89 ± 0.021
308.15 K	0.719 ± 0.021

O [water] + CCCCCCCC[n+]1ccc(C)cc1.[Br-]
[1], m2 = 0
Settings	electrical conductivity [S/m]	viscosity [mPa·s]
288.15 K	0.000101	1.133 ± 0.022
298.15 K	0.00015	0.89 ± 0.022
308.15 K	0.000216	0.719 ± 0.021

O [water] + CCCCCC[n+]1ccc(C)cc1.[Br-]
[1], m2 = 0
Settings	electrical conductivity [S/m]	viscosity [mPa·s]
288.15 K	0.000101	1.133 ± 0.022
298.15 K	0.00015	0.89 ± 0.022
308.15 K	0.000216	0.719 ± 0.021

O [water] + CCCC[n+]1ccc(C)cc1.[Br-]
[1], m2 = 0
Settings	electrical conductivity [S/m]	viscosity [mPa·s]
288.15 K	0.000101	1.133 ± 0.022
298.15 K	0.00015	0.89 ± 0.021
308.15 K	0.000216	0.719 ± 0.021
